In US4218460A, “Nitroimidazoles” (BASF Aktiengesellschaft, priority 1978, dated 1980):
Values after ≈ are worked out from the molar mass of the structure shown.

Tests used:
[1] = system: Entamoeba histolytica; test: Entamoeba histolytica in vitro tube-dilution test; type: cell-based; conditions: Entamoeba histolytica PN and Q strains, read-out: minimum inhibition concentration
Description: 4. Entamoeba histolytica (tube-dilution test)
The PN and Q strains were tested.
The minimum inhibition concentrations were as follows:
The experiments were carried out in vitro using the quantitative tube-dilution test described by P. Klein, Bakteriologische Grundlagen der chemotherapeutischen Laboratoriumspraxis, Springer-Verlag, Berlin-Goettingen-Heidelberg, 1957.

[2] = system: Trypanosoma gambiense; test: Trypanosoma gambiense infection of mouse; type: in vivo, mouse (NMRI strains)
Description: (§1) The action against infections caused by Trypanosomas and Entamoeba histolytica can be illustrated on the mouse (NMRI strains) using methods described in Handbuch fur experimentelle Pharmakologie, Erganzungswerk 16, Erzeugung von Krankheitszustanden durch das Experiment, Part 9, pages 150 to 292, Springer-Verlag, Berlin-Goettingen-Heidelberg, 1964.
(§2) Various dosages were investigated. The curing of the infection was determined microscopically and in a culture. There was also post-observation for 25 days after treatment was discontinued in order to establish whether there was any recidivation
2. Trypanosoma gambiense--infection of mouse
(§3) Same method as in the case of Trypanosoma brucei

[3] = system: Trichomonas; test: Trichomonas vaginal infection of mice; type: in vivo; conditions: po, read-out: cure; for responders at 25 mg/kg: 5×25 mg/kg perorally; for responders at 50 mg/kg: 5×50 mg/kg perorally
Description: 5. Trichomonas vaginal--infection of mice Various dosages were investigated. The curing of the infection was determined microscopically and in a culture.

[4] = system: Trypanosoma brucei; test: Trypanosoma brucei infection of the mouse; type: in vivo, mouse (NMRI strains); conditions: for recidivation: 25 days post-observation
Description: as §1
1. Trypanosoma brucei--infections of the mouse
as §2

[5] = system: Trypanosoma congolense; test: Trypanosoma congolense infection of mouse; type: in vivo, mouse (NMRI strains)
Description: as §1, §2
3. Trypanosoma congolense--infection of mouse
as §3

[6] = LD 50 toxicity on mice, oral; conditions: mouse, in vivo, NMRI strain, a week's observation period
[7] = system: Trichomonas vaginalis; test: Minimum inhibition concentration on Trichomonas vaginalis, in vitro quantitative tube-dilution test; type: cell-based; conditions: for Relative effectiveness Metronidazol = 1.0: MIC on Trichomonas vaginalis relative to Metronidazol = 1.0; for MIC: Trichomonas vaginalis, in vitro tube-dilution test
Description: Minimum inhibition concentrations (MIC) on Trichomonas
^1 The tests were carried out in vitro using the quantitative
tubedilutiom test described by P. Klein, Bakteriologische Geundlagen der
chemotherapeutischen Laboratoriumspraxis, SpringerVerlag
BerlinCoettingen-Heidelberg, 1957.

SMILES	MIC [1] [µg/mL]	acute action ([2]; 11×50 mg/kg perorally)	responders at 25 mg/kg [3] [%]	acute action ([4]; 11×50 mg/kg perorally)	acute action ([5]; 11×50 mg/kg perorally)	LD50 at 168 h [6] [mg/kg]	Relative effectiveness Metronidazol = 1.0 [7]	MIC [7] [µg/mL]	responders at 50 mg/kg [3] [%]	also measured
CCc1nnc(C(C)=Cc2ncc([N+](=O)[O-])n2C)s1 [Example 10, 2-ethyl-5-[1-methyl-2-(1-methyl-5-nitroimidazol-2-yl)-vinyl]-1,3,4-thiadiazole]	< 0.01	100%	100	100%	100%	> 1500	> 10.0	< 0.01	–	recidivation ([2]; 11×50 mg/kg perorally): 60%; recidivation ([4]; 11×50 mg/kg perorally): no recidivation; recidivation ([5]; 11×50 mg/kg perorally): no recidication
Cn1c([N+](=O)[O-])cnc1C=Cc1nncs1 [Example 6, 2-[2-(1-methyl-5-nitroimidazol-2-yl)-vinyl]-1,3,4-thiadiazole]	< 0.01	no action	–	no action	no action	–	> 10.0	< 0.01	50	–
Cc1ccc(C(=O)Nc2ccc(S(=O)(=O)O)c3cc(S(=O)(=O)O)cc(S(=O)(=O)O)c23)cc1NC(=O)c1cccc(NC(=O)Nc2cccc(C(=O)Nc3cc(C(=O)Nc4ccc(S(=O)(=O)O)c5cc(S(=O)(=O)O)cc(S(=O)(=O)O)c45)ccc3C)c2)c1 [Suramin, reference compound]	–	–	–	–	–	–	–	–	–	acute action ([2]; 7×50 mg/kg intraperitoneally): 50%; recidivation ([2]; 7×50 kg/mg intraperitoneally): no recidivation; acute action ([4]; 7×50 mg/kg intraperitoneally): 80%; recidivation ([4]; 7×50 mg/kg intraperitoneally): no recidivation; acute action ([5]; 7×50 mg/kg intraperitoneally): 70%; recidivation ([5]; 7×50 mg/kg intraperitoneally): no recidivation
CCc1nnc(C=Cc2ncc([N+](=O)[O-])n2C)s1 [Example 7, 2-ethyl-5-[2-(1-methyl-5-nitroimidazol-2-yl)-vinyl]-1,3,4-thiadiazole]	< 0.01	no action	–	–	no action	> 1500	> 10.0	< 0.01	100	acute action ([4]; 11×50 mg/kg (route not given)): 100%; recidivation ([4]; 11×50 mg/kg (route not given)): 30%
CCS(=O)(=O)CCn1c([N+](=O)[O-])cnc1C [Tinidazol, reference compound]	–	–	100	–	–	–	1.0	0.1 (≈ 0.404 µM)	–	action ([4]; 22×50 mg/kg perorally): no action
Cn1c([N+](=O)[O-])cnc1C=Cc1nnc(-c2ccncc2)s1 [Example 5, 2-(4-pyridyl)-5-[2-(1-methyl-5-nitroimidazol-2-yl)-vinyl]-1,3,4-thiadiazole]	< 0.01	no action	100	no action	no action	–	10.0	0.01 (≈ 0.0318 µM)	–	–
Cn1c([N+](=O)[O-])cnc1C=Cc1nnc(-c2ccccc2)s1 [Example 2, 2-phenyl-5-[2-(1-methyl-5-nitroimidazol-2-yl)-vinyl]-1,3,4-thiadiazole]	0.1 (≈ 0.319 µM)	no action	–	no action	no action	–	10.0	0.01 (≈ 0.0319 µM)	10	–
Cc1ncc([N+](=O)[O-])n1CCO [Metronidazol, reference compound]	0.1 (≈ 0.584 µM)	–	100	no action	–	–	1.0	0.1 (≈ 0.584 µM)	–	–
Cc1nnc(C=Cc2ncc([N+](=O)[O-])n2C)s1 [Example 1, 2-methyl-5-[2-(1-methyl-5-nitroimidazol-2-yl)-vinyl]-1,3,4-thiadiazole]	< 0.01	100%	100	100%	100%	> 1500	5.0	0.02 (≈ 0.0796 µM)	–	recidivation ([2]; 11×50 mg/kg perorally): 80%; recidivation ([4]; 11×50 mg/kg perorally): 70%; no recidivation (so in the source) ([5]; 11×50 mg/kg perorally): 20%
